Each structure is given as a SMILES string. Numbers after ± are expanded uncertainties.

Usually mass density stands for mass per unit of volume.

For this data set the following is noted: 101.33 kPa, Liquid, Vibrating tube method.

Regarding `CCOS(=O)(=O)[O-].CCn1cc[n+](C)c1` [1-ethyl-3-methylimidazolium ethyl sulfate], the mass density came out at 1240.25 ± 0.16 kg/m3 (293.16 K); 1236.81 ± 0.16 kg/m3 (298.15 K); 1233.39 ± 0.16 kg/m3 (303.15 K); 1229.98 ± 0.15 kg/m3 (308.15 K); 1226.59 ± 0.15 kg/m3 (313.15 K); 1223.22 ± 0.15 kg/m3 (318.15 K). Further, the mass density (323.18 K) was 1219.84 ± 0.15 kg/m3.

Regarding `CCCCCCCC[N+](C)(CCCCCCCC)CCCCCCCC.[Cl-]` [N-methyl-N,N-dioctyl-1-octanaminium chloride], the mass density is, setting by setting: (293.15 K) 889.47 ± 2.7 kg/m3; (298.14 K) 886.45 ± 2.7 kg/m3; (303.14 K) 883.43 ± 2.7 kg/m3; (308.14 K) 880.41 ± 2.7 kg/m3; (313.14 K) 877.37 ± 2.7 kg/m3; (318.14 K) 874.35 ± 2.6 kg/m3. Also, the mass density is, setting by setting: (323.14 K) 871.36 ± 2.6 kg/m3; (328.14 K) 868.37 ± 2.6 kg/m3; (333.14 K) 865.37 ± 2.6 kg/m3; (338.14 K) 862.37 ± 2.6 kg/m3; (343.14 K) 859.36 ± 2.6 kg/m3.

On to `CCCCCCCC[N+](C)(CCCCCCCC)CCCCCCCC.O=[N+]([O-])[O-]` [N-methyl-N,N,N-trioctylammonium nitrate], for which the mass density is listed as 915.29 ± 2.9 kg/m3 (293.16 K); 912.33 ± 2.9 kg/m3 (298.14 K); 909.37 ± 2.9 kg/m3 (303.14 K); 906.41 ± 2.8 kg/m3 (308.14 K); 903.43 ± 2.8 kg/m3 (313.14 K); 900.5 ± 2.8 kg/m3 (318.14 K). Besides, the mass density amounted to 897.58 ± 2.8 kg/m3 (323.14 K); 894.67 ± 2.8 kg/m3 (328.14 K); 891.76 ± 2.8 kg/m3 (333.14 K); 888.84 ± 2.7 kg/m3 (338.14 K); 885.93 ± 2.7 kg/m3 (343.14 K).
